Results taken from patent US5786447A, “Opioid peptide analogs” (Astra AB, priority 1994, dated 1998).
Positions of bridges follow the written chain, without caps; N, C: chain ends. Non-standard residues stand in square brackets, D forms with d. Residues, ends and D or L forms follow the SMILES beside them. 2Nal = N[C@@H](Cc1ccc2ccccc2c1)C(=O)O; Dmt = Cc1cc(O)cc(C)c1C[C@H](N)C(=O)O; dOrn = NCCC[C@@H](N)C(=O)O; NMeAib = CNC(C)(C)C(=O)O; Sar = CNCC(=O)O

Columns and labels:
[1] = molecular target: μ opioid receptors (Cavia porcellus, UniProt P97266); experiment: GPI assay: inhibition of electrically evoked contractions of the guinea pig ileum; format: cell-based; conditions: means of 3-6 determinations ± SEM, normalized to [Leu5]enkephalin standard, read-out: IC50 in the GPI assay (agonist potency)
Sequence of μ opioid receptors (P97266 whole entry, looked up): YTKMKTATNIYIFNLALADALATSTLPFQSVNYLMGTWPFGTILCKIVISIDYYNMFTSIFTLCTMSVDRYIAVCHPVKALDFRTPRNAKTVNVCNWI
Experimental: (§1) a) Bioassays based on inhibition of electrically evoked contractions of the mouse vas deferens (MVD) and of the guinea pig ileum (GPI). In the GPI assay the opioid effect is primarily mediated by μ opioid receptors, whereas in the MVD assay the inhibition of the contractions is mostly due to interaction with δ opioid receptors.
(§2) The GPI and MVD bioassays were carried out as reported in P. W. Schiller et al., Biochem. Biophys. Res. Commun 85, 1332-1338 (1978) and J. Di Maio et al., J. Med. Chem. 25, 1432-1438 (1982). A log dose-response curve was determined with [Leu^5 ] enkephalin as standard for each ileum and vas preparation, and IC50 values of the compounds being tested were normalized according to A. A. Waterfield et al., Eur. J. Pharmacol. 58, 11-18 (1979). Ke values for the cyclic β-casomorphin analogs with mixed μ agonist/δ antagonist properties (δ antagonist effect) were determined from the ratio of IC50 values (DR) obtained in the presence and absence of a fixed antagonist concentration (a) (Ke =a/(DR-1)) H. W. Kosterlitz & A. J. Watt, Br. J. Pharmacol. 33, 266-276 (1968). These determinations were made with the MVD assay, using three different δ-selective agonists ([Leu^5 ]enkephalin, DPDPE and [D-Ala^2]deltorphin I].

[2] = molecular target: T1, δ opioid receptors (Mus musculus, UniProt P32300); experiment: MVD assay: inhibition of electrically evoked contractions of the mouse vas deferens (δ antagonist Ke); format: cell-based; conditions: means of 3-8 determinations ± SEM; for Ke in the MVD assay, antagonist potency against DPDPE: δ agonist DPDPE; for Ke in the MVD assay, antagonist potency against [D-Ala2]deltorphin I: δ agonist [D-Ala2]deltorphin I; for Ke in the MVD assay, antagonist potency against [Leu5]enkephalin: δ agonist [Leu5]enkephalin
T1 construct: Bioassays Using Isolated Organ Preparations; from tissue; host or cells: isolated mouse vas deferens
T1 sequence (P32300 whole entry): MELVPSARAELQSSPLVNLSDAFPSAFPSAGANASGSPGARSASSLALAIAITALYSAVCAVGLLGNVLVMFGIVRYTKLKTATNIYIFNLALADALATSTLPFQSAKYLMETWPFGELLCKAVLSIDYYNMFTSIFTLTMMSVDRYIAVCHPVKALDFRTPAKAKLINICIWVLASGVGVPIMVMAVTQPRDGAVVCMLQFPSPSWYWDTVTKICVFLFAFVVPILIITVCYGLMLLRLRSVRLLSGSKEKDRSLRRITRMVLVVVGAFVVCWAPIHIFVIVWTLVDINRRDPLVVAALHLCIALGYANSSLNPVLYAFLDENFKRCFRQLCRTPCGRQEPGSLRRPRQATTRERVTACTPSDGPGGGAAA
Experimental: as §1, §2

[3] = molecular target: T2, μ opioid receptor (Rattus norvegicus, UniProt P33535); experiment: μ opioid receptor binding, displacement of [3H]DAMGO from rat brain membranes; conditions: [3H]DAMGO 0.7 nM, Cheng-Prusoff, means of three determinations ± SEM
T2 construct: from tissue; host or cells: rat brain membranes (cerebellum removed), Sprague-Dawley
T2 sequence (P33535 whole entry): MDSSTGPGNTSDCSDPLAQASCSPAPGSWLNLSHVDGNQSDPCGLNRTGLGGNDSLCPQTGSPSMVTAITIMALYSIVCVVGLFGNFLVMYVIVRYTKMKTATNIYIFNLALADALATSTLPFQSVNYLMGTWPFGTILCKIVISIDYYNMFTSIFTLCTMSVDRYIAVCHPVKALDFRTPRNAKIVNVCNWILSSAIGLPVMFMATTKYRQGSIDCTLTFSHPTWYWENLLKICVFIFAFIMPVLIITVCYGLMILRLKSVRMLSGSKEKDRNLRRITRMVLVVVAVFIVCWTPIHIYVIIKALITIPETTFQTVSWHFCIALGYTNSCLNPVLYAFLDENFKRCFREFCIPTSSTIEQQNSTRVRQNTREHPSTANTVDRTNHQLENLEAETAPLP
Description: (§3) In the case of κ-ligands guinea pig brain homogenates were used, since the relative proportion of κ-binding sites is higher in guinea pig brain than in rat brain. The experimental procedure being used in our laboratory represents a modified version of the binding assay described by Paternak et al. (Mol. Pharmacol. 11 340-351, (1975)). Male Sprague-Dawley rats (300-350 g) from the Canadian Breeding Laboratories were decapitated and after removal of the cerebellum the brains were homogenized in 30 volumes of ice-cold standard buffer (50 mM Tris-HCl, pH 7.7). After centrifugation at 30,000×g for 30 min at 4° C. the membranes were reconstituted in the original volume of standard buffer and incubated for 30 min at 37° C. (to release bound endogenous ligands). […] The incubation was terminated by filtration through Whatman GF/B filters under vacuum at 4° C. Following two washings with 5 ml portions of ice-cold standard buffer the filters were transferred to scintillation vials and treated with 1 ml Protosol (New England Nuclear) for 30 min prior to the addition of 0.5 ml acetic acid and 10 ml Aquasol (New England Nuclear). After shaking for 30 min the vials were counted at an efficiency of 40-45%. All experiments were performed in duplicates and repeated at least three times. Specific binding of each of the three radioglands was defmed by performing incubations in the presence of cold DAMGO, DSLET and U69,563, respectively, at a concentration of 1 micromolar. Values of half-maximal inhibition (IC50) of specific binding were obtained graphically from semilogarithmic plots. From the measured IC50-values, binding inhibition constants (Ki) were then calculated based on Cheng and Prussoff's equation (Biochem. Pharmacol. 22, 3099-3102 (1973)). Ratios of the Ki -values in the μ-, δ- and κ-representative bindning assays are a measure of the receptor selectivity of the compound under investigation (e.g. Ki^δ/ Ki^μ indicated the selectivity for μ-receptors versus δ-receptors).

[4] = molecular target: T3, δ opioid receptor (Rattus norvegicus, UniProt P33533); experiment: δ opioid receptor binding, displacement of δ-selective radioligand from rat brain membranes; conditions: for Ki^δ/Ki^μ (selectivity for μ versus δ receptors): ratio of binding constants; for Ki: δ-selective radioligand 1.0 nM, Cheng-Prusoff, means of three determinations ± SEM
T3 construct: from tissue; host or cells: rat brain membranes (cerebellum removed), Sprague-Dawley
T3 sequence (P33533 whole entry): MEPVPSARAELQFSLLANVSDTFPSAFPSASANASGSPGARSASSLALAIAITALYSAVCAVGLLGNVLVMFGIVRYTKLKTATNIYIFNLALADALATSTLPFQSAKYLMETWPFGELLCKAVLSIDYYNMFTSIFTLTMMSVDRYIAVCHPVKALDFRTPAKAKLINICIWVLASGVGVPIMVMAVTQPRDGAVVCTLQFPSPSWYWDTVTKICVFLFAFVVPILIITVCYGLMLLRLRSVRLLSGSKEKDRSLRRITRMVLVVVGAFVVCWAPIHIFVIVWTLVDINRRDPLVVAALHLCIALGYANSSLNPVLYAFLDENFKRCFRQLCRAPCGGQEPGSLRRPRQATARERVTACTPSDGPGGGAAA
Description: as §3

Row | Structure (SMILES) | IC50 [1] | Ke in the MVD assay, antagonist potency against DPDPE [2] | Ke in the MVD assay, antagonist potency against [D-Ala2]deltorphin I [2] | Ke in the MVD assay, antagonist potency against [Leu5]enkephalin [2] | Ki [3] | Ki^δ/Ki^μ (selectivity for μ versus δ receptors) [4] | Ki [4]
1 | CN1CC(=O)NCCC[C@@H](NC(=O)[C@@H](N)Cc2ccc(O)cc2)C(=O)N[C@@H](Cc2ccc3ccccc3c2)C(=O)N2CCC[C@@H]2C1=O [Example 2, H-Tyr-c[-D-Orn-2-Nal-D-Pro-Sar-]] (HELM PEPTIDE1{Y.[O=C([C@@H](CCCN[*:3])N[*:1])[*:2]].[O=C([C@H](Cc1ccc2ccccc2c1)N[*:1])[*:2]].[dP].[Sar]}$PEPTIDE1,PEPTIDE1,2:R3-5:R2$$$V2.0) | 159 nM | 11.2 ± 2.1 | 7.81 ± 1.90 | 17.0 ± 3.60 | 14.8 ± 0.7 nM | 0.163 | 2.41 ± 0.34 nM
2 | N[C@@H](Cc1ccc(O)cc1)C(=O)N[C@@H]1CCCCNC(=O)CNC(=O)[C@H]2CCCN2C(=O)[C@H](Cc2ccc3ccccc3c2)NC1=O [H-Tyr-c[-D-Lys-2-Nal-D-Pro-Gly-], reference compound] (HELM PEPTIDE1{Y.[dK].[O=C([C@H](Cc1ccc2ccccc2c1)N[*:1])[*:2]].[dP].G}$PEPTIDE1,PEPTIDE1,2:R3-5:R2$$$V2.0) | 609 nM | 305 ± 52 | 305 ± 52 | 603 ± 174 | 17.1 ± 2.6 nM | 3.66 | 62.6 ± 13.2 nM
3 | CN1C(=O)[C@H]2CCCN2C(=O)[C@H](Cc2ccc3ccccc3c2)NC(=O)[C@H](NC(=O)[C@@H](N)Cc2ccc(O)cc2)CCCNC(=O)C1(C)C [Example 7, H-Tyr-c[-D-Orn-2-Nal-D-Pro-MeAib-]] (H-Y[dOrn][2Nal][dP][NMeAib]; lactam 2-C) | 228 nM | 370 ± 48 | 480 ± 84 | – | 29.2 ± 5.2 nM | 0.366 | 10.7 ± 5.5 nM
4 | CN[C@@H](Cc1ccc(O)cc1)C(=O)N[C@@H]1CCCNC(=O)CNC(=O)[C@H]2CCCN2C(=O)[C@H](Cc2ccc3ccccc3c2)NC1=O [Example 1, Tyr(NMe)-c[-D-Orn-2-Nal-D-Pro-Gly-]] (HELM PEPTIDE1{[meY].[O=C([C@@H](CCCN[*:3])N[*:1])[*:2]].[O=C([C@H](Cc1ccc2ccccc2c1)N[*:1])[*:2]].[dP].G}$PEPTIDE1,PEPTIDE1,2:R3-5:R2$$$V2.0) | 92.5 nM | 45.9 ± 2.8 | 38.8 ± 5.9 | 30.8 ± 1.5 | 1.7 ± 0.15 nM | 0.765 | 1.3 ± 0.19 nM
5 | Cc1cc(O)cc(C)c1C[C@H](N)C(=O)N[C@@H]1CCCNC(=O)[C@@H](C)NC(=O)[C@H]2CCCN2C(=O)[C@H](Cc2ccc3ccccc3c2)NC1=O [Example 10, H-Dmt-c[-D-Orn-2-Nal-D-Pro-D-Ala-]] (H-[Dmt][dOrn][2Nal][dP][dA]; lactam 2-C) | 10.4 nM | 0.577 ± 0.022 | 0.319 ± 0.091 | – | – | – | –
6 | Cc1cc(O)cc(C)c1C[C@H](N)C(=O)N[C@@H]1CCCNC(=O)CN(C)C(=O)[C@H]2CCCN2C(=O)[C@H](Cc2ccc3ccccc3c2)NC1=O [Example 4, H-Dmt-c[-D-Orn-2-Nal-D-Pro-Sar-]] (H-[Dmt][dOrn][2Nal][dP][Sar]; lactam 2-C) | 14.5 nM | 16.4 | – | – | – | – | –
7 | CC1(C)NC(=O)[C@H]2CCCN2C(=O)[C@H](Cc2ccc3ccccc3c2)NC(=O)[C@H](NC(=O)[C@@H](N)Cc2ccc(O)cc2)CCCNC1=O [Example 6, H-Tyr-c[-D-Orn-2-Nal-D-Pro-Aib-]] (HELM PEPTIDE1{Y.[O=C([C@@H](CCCN[*:3])N[*:1])[*:2]].[O=C([C@H](Cc1ccc2ccccc2c1)N[*:1])[*:2]].[dP].[Aib]}$PEPTIDE1,PEPTIDE1,2:R3-5:R2$$$V2.0) | 451 nM | 31.6 ± 2.9 | 55.8 ± 3.8 | – | – | – | –
8 | Cc1cc(O)cc(C)c1C[C@H](N)C(=O)N[C@@H]1CCCNC(=O)CNC(=O)[C@H]2CCCN2C(=O)[C@H](Cc2ccc3ccccc3c2)NC1=O [Example 3, H-Dmt-c[-D-Orn-2-Nal-D-Pro-Gly-]] (H-[Dmt][dOrn][2Nal][dP]G; lactam 2-C) | 7.88 nM | 2.13 ± 0.51 | 3.37 ± 0.59 | 3.74 ± 1.00 | 0.46 ± 0.022 nM | 0.993 | 0.457 ± 0.022 nM
9 | CC(C)[C@H]1NC(=O)[C@H]2CCCN2C(=O)[C@H](Cc2ccc3ccccc3c2)NC(=O)[C@H](NC(=O)[C@@H](N)Cc2ccc(O)cc2)CCCNC1=O [Example 8, H-Tyr-c[-D-Orn-2-Nal-D-Pro-D-Val-]] (HELM PEPTIDE1{Y.[O=C([C@@H](CCCN[*:3])N[*:1])[*:2]].[O=C([C@H](Cc1ccc2ccccc2c1)N[*:1])[*:2]].[dP].[dV]}$PEPTIDE1,PEPTIDE1,2:R3-5:R2$$$V2.0) | 536 nM | 20.9 ± 1.5 | 26.1 ± 2.8 | – | – | – | –
10 | C[C@H]1NC(=O)[C@H]2CCCN2C(=O)[C@H](Cc2ccc3ccccc3c2)NC(=O)[C@H](NC(=O)[C@@H](N)Cc2ccc(O)cc2)CCCNC1=O [Example 5, H-Tyr-c[-D-Orn-2-Nal-D-Pro-D-Ala-]] (HELM PEPTIDE1{Y.[O=C([C@@H](CCCN[*:3])N[*:1])[*:2]].[O=C([C@H](Cc1ccc2ccccc2c1)N[*:1])[*:2]].[dP].[dA]}$PEPTIDE1,PEPTIDE1,2:R3-5:R2$$$V2.0) | 600 nM | 5.35 ± 0.42 | 5.99 ± 1.30 | – | 72 ± 22 nM | 0.0105 | 0.755 ± 0.125 nM
11 | CC[C@@H](C)[C@H]1NC(=O)[C@H]2CCCN2C(=O)[C@H](Cc2ccc3ccccc3c2)NC(=O)[C@H](NC(=O)[C@@H](N)Cc2ccc(O)cc2)CCCNC1=O [Example 9, H-Tyr-c[-D-Orn-2-Nal-D-Pro-D-Ile-]] (HELM PEPTIDE1{Y.[O=C([C@@H](CCCN[*:3])N[*:1])[*:2]].[O=C([C@H](Cc1ccc2ccccc2c1)N[*:1])[*:2]].[dP].[dI]}$PEPTIDE1,PEPTIDE1,2:R3-5:R2$$$V2.0) | 815 nM | 4.88 ± 0.94 | 7.63 ± 1.48 | – | – | – | –
